# Source: patent US11530244B2, “Cyclic polypeptides for PCSK9 inhibition” (priority 2018, dated 2022)
# Starred links: 1 amine or outer side, 2 acyl side, 3 side chain; linkers in the order of their positions; H or OH if unused. Positions of bridges follow the written chain, without caps; N, C: chain ends. Non-standard residues stand in square brackets, D forms with d. Residues, ends and D or L forms follow the SMILES beside them. Triazole bridges read from a SMILES are 1,4-linked. ξ: configuration not given here. X43 = O=C(CC[S+]([O-])Cc1cc(F)cc(CSCCN[*:1])c1)[*:2]; X25 = O=C([C@H](Cc1cccc(OCC=[*:3])c1)N[*:1])[*:2]; Phe(4-COOH) = N[C@@H](Cc1ccc(C(=O)O)cc1)C(=O)O; Trp(5-F) = N[C@@H](Cc1c[nH]c2ccc(F)cc12)C(=O)O; Asp(3,3-Me2) = CC(C)(C(=O)O)[C@H](N)C(=O)O; X42 = CN([C@@H](CCC=[*:3])C(=O)[*:2])[*:1]; Lys(N3) = [N-]=[N+]=NCCCC[C@H](N)C(=O)O; Pro(4S-NH2) = N[C@@H]1CN[C@H](C(=O)O)C1; Orn(N3) = [N-]=[N+]=NCCC[C@H](N)C(=O)O; mXylylene = c1cc(C[*:1])cc(C[*:2])c1; X47 = O=C(O)CCCCC(N[*:1])C(=O)[*:2]; X39 = c1cc(CCSCN[*:2])cc(C[*:1])c1; X41 = O=C(Cc1ccc(N[*:1])cc1)[*:2]; X6 = O=C(Cc1ccc(CN[*:2])cc1)[*:1]; X15 = Brc1cc(C[*:1])cc(C[*:2])c1; hLys = NCCCCC[C@H](N)C(=O)O; αMeP = C[C@@]1(C(=O)O)CCCN1; Hpra = C#CCC[C@H](N)C(=O)O; ξD = NC(CC(=O)O)C(=O)O; Mpa = O=C(O)CCS
# Experiments:
# [1] = biological target: human PCSK9 / human LDLR EGFa domain interaction (Homo sapiens (Human), UniProt Q8NBP7); assay: TR-FRET assay of inhibition of the PCSK9-LDLR protein-protein interaction; format: binding; conditions: TR-FRET, 20 nM human PCSK9, 20 nM human LDLR EGFa domain, 2 hours room temperature; read-out: IC50
# Method in brief: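 Readout is the TR-FRET signal between europium anti-6×His on his-tagged LDLR EGFa domain and Ulight streptavidin on biotinylated PCSK9, both proteins at 20 nM and both detection reagents at 5 nM. Incubation lasted 2 hours at room temperature; compounds were run in dose-response with a 4-parameter fit.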
# [2] = biological target: PCSK9 (Homo sapiens (Human), UniProt Q8NBP7); assay: PCSK9 Alexa FRET Standard assay (displacement of AlexaFluor647 tagged cyclic peptide Reagent A); format: binding; conditions: PCSK9 Alexa FRET Standard assay, 0.5 nM PCSK9, 20 nM AF cyclic peptide Reagent A; read-out: IC50
# Method in brief: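 TR-FRET displacement: 0.5 nM biotinylated PCSK9 with 1.25 nM Strep-Eu and 20 nM AlexaFluor-tagged cyclic peptide (final) in 50 mM HEPES pH 7.4, 0.15 M NaCl, 5 mM CaCl2, 0.01% BSA, 0.01% P20, ≥2 h at room temperature. IC50 from sigmoidal fit, converted to Ki via peptide KD; falling Eu counts flagged false positives.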
# Chain of PCSK9 (Q8NBP7 153-692): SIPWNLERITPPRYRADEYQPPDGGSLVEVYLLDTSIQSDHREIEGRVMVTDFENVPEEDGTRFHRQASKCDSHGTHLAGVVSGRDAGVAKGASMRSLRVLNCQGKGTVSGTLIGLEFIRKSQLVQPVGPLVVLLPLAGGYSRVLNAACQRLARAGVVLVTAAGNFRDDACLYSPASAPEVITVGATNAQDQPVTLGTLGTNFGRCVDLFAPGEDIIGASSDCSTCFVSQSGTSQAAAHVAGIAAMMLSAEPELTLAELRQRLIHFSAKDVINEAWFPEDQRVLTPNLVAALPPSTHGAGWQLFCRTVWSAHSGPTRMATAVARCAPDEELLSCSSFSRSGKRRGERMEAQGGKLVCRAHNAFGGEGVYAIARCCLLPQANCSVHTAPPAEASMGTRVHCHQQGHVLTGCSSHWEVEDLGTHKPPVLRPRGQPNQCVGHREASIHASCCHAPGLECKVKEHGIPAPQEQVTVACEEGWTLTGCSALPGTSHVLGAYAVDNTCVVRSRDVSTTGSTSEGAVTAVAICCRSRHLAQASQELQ
# Chain of human PCSK9 / human LDLR EGFa domain interaction (Q8NBP7 153-692): as above
# Chain of human PCSK9 / human LDLR EGFa domain interaction (Q8NBP7 31-152 partner): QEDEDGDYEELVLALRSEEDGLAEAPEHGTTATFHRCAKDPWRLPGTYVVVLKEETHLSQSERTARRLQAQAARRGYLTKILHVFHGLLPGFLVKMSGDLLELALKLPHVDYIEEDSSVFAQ
Structure (SMILES),IC50 [1],IC50 [2]
CC(=O)N[C@H]1CCCCn2cc(nn2)CC[C@@H](C(N)=O)NC(=O)[C@]2(C)CCCN2C(=O)[C@H](Cc2ccc(O)cc2)NC(=O)[C@H](Cc2cnc[nH]2)NC(=O)[C@H](CC(=O)O)NC(=O)[C@H](Cc2c[nH]c3ccc(F)cc23)NC(=O)[C@H](Cc2c[nH]c3ccc(F)cc23)NC(=O)CNC(=O)[C@H](C)NC1=O [Compound 332] (Ac-[Lys(N3)]AG[Trp(5-F)][Trp(5-F)]DHY[αMeP][Hpra]-NH2; triazole 1-10),0.1 to 100 nM,100 to 1000 nM
COc1ccc(C[C@@H]2NC(=O)[C@H](Cc3cnc[nH]3)NC(=O)[C@H](CC(=O)O)NC(=O)[C@H](Cc3c[nH]c4ccc(F)cc34)NC(=O)[C@H](Cc3c[nH]c4ccc(F)cc34)NC(=O)[C@@H](C)NC(=O)[C@H](NC(C)=O)CCCCNC(=O)Cc3ccc(cc3)CNC(=O)C[C@@H](C(N)=O)NC(=O)[C@]3(C)CCCN3C2=O)cc1 [Compound 397] (Ac-[dK][dA][Trp(5-F)][Trp(5-F)]DHY(Me)[αMeP]D-NH2; linker 1-9 via X6),1000 to 12100 nM,1000 to 12100 nM
"C[C@H]1NC(=O)[C@H](CCCCN)NC(=O)CCSCc2cccc(c2)CSC[C@@H](C(N)=O)NC(=O)[C@]2(C)CCCN2C(=O)[C@H](Cc2ccc(O)cc2)NC(=O)[C@H](Cc2cnc[nH]2)NC(=O)[C@H](C(C)(C)C(=O)O)NC(=O)[C@H](Cc2c[nH]c3ccc(F)cc23)NC(=O)[C@H](Cc2c[nH]c3ccc(F)cc23)NC1=O [Compound 361] ([Mpa]K[dA][Trp(5-F)][Trp(5-F)][Asp(3,3-Me2)]HY[αMeP]C-NH2; linker 1-10 via mXylylene)",0.1 to 100 nM,100 to 1000 nM
COc1ccc(C[C@@H]2NC(=O)[C@H]([C@@H](C)O)NC(=O)[C@@H]3CCCN3C(=O)[C@H](Cc3c[nH]c4ccc(F)cc34)NC(=O)[C@H](Cc3c[nH]c4ccc(F)cc34)NC(=O)[C@@H](C)NC(=O)[C@H](CCCCN)NC(=O)CCSCc3cc(Br)cc(c3)CSC[C@@H](C(N)=O)NC(=O)[C@]3(C)CCCN3C2=O)cc1 [Compound 061] ([Mpa]K[dA][Trp(5-F)][Trp(5-F)]PTY(Me)[αMeP]C-NH2; linker 1-10 via X15),21000 to 50000 nM,21000 to 50000 nM
COc1ccc(C[C@@H]2NC(=O)[C@H]([C@@H](C)O)NC(=O)[C@@H]3C[C@H](F)CN3C(=O)[C@H](Cc3c[nH]c4ccc(F)cc34)NC(=O)[C@H](Cc3c[nH]c4ccc(F)cc34)NC(=O)[C@@H](C)NC(=O)[C@H](CCCCN)NC(=O)CCC/C=C\Cc3ccc(cc3)C[C@@H](C(N)=O)NC(=O)[C@]3(C)CCCN3C2=O)cc1 [Compound 132],21000 to 50000 nM,21000 to 50000 nM
COc1ccc(C[C@@H]2NC(=O)[C@H](Cc3cnc[nH]3)NC(=O)[C@H](CC(=O)O)NC(=O)[C@H](Cc3c[nH]c4ccc(F)cc34)NC(=O)[C@H](Cc3c[nH]c4ccc(F)cc34)NC(=O)[C@@H](C)NC(=O)[C@H](CCCCN)NC(=O)[C@@H](NC(C)=O)CCCCCNC(=O)c3ccc(cc3)C[C@@H](C(N)=O)NC(=O)[C@]3(C)CCCN3C2=O)cc1 [Compound 393] (Ac-[hLys]K[dA][Trp(5-F)][Trp(5-F)]DHY(Me)[αMeP][Phe(4-COOH)]-NH2; lactam 1-10),0.1 to 100 nM,100 to 1000 nM
COc1ccc(C[C@@H]2NC(=O)[C@H](Cc3cnc[nH]3)NC(=O)[C@H](CC(=O)O)NC(=O)[C@H](Cc3c[nH]c4ccc(F)cc34)NC(=O)[C@H](Cc3c[nH]c4ccc(F)cc34)NC(=O)[C@@H](C)NC(=O)Cc3ccc(cc3)NC(=O)CC(C(=O)O)NC(=O)[C@]3(C)CCCN3C2=O)cc1 (stereo partly drawn) [Compound 402] ([X41][dA][Trp(5-F)][Trp(5-F)]DHY(Me)[αMeP][ξD]-OH; lactam N-9),1000 to 12100 nM,1000 to 12100 nM
COc1ccc(C[C@@H]2NC(=O)[C@H]([C@@H](C)OC)NC(=O)[C@@H]3CC/C=C/COc4cccc(c4)C[C@H](NC(=O)[C@@H](C)NC(=O)[C@H](C)NC(=O)CC[S+]([O-])Cc4cc(F)cc(c4)CSCCNC(=O)[C@]4(C)CCCN4C2=O)C(=O)N[C@@H](Cc2c[nH]c4ccc(F)cc24)C(=O)N3C)cc1 (stereo partly drawn) [Compound 507] (cyclo(A[dA][X25][Trp(5-F)][X42]T(Me)Y(Me)[αMeP][X43]); staple (E) 3-5),0.1 to 100 nM,0.11 to 100 nM
COc1ccc(C[C@@H]2NC(=O)C(CCCCC(=O)O)NC(=O)[C@@H]3C[C@H](N)CN3C(=O)[C@H](Cc3c[nH]c4ccc(F)cc34)NC(=O)[C@H](Cc3c[nH]c4ccc(F)cc34)NC(=O)[C@@H](C)NC(=O)[C@H](CCCN=[N+]=[N-])NC(=O)CCSCc3cccc(c3)CCSCNC(=O)[C@]3(C)CCCN3C2=O)cc1 (stereo partly drawn) [Compound 388] ([Mpa][Orn(N3)][dA][Trp(5-F)][Trp(5-F)][Pro(4S-NH2)][X47]Y(Me)[αMeP]; linker 1-C via X39),0.1 to 100 nM,100 to 1000 nM
